The source of these data is patent US12678387B2, “Composition for alleviating hair loss or promoting hair growth” (LG HOUSEHOLD & HEALTH CARE LTD., priority 2020, dated 2026).

The test system of assay [1] is Wnt/β-catenin signaling. The experiment in a line: Wnt/β-catenin luciferase reporter assay in Wnt Reporter HEK293A cells. The format is cell-based. The following applies: for Wnt signaling activity for activating hair follicles (%): untreated group 100%; for Wnt signaling activity (in words): summary of Table 5. The source says: In general, the Wnt/β-catenin signaling activated in the dermal papillae during transition from the […] to the anagen transition in the hair growth cycle begins as the hair starts to grow and occurs throughout the anagen phase. In the telogen and catagen phases, the Wnt/β-catenin signaling decreases or disappears, resulting in degeneration of hair follicles and shedding of hair. Therefore, it was investigated in the examples how much the momordin Ic, platycodin D2, polygalacin D or pseudoginsenoside RT5 of the present disclosure contributes to the amplification of Wnt/β-catenin signaling.
Wnt3a protein was used as a positive control group for amplifying Wnt/β-catenin signaling, and DMSO was used as a negative control group. After seeding Wnt Reporter HEK293A cells in a 96-well culture plate, with 3×10^4 cells per well, and then treating with the momordin Ic, platycodin D2, polygalacin D or pseudoginsenoside RT5 of the present disclosure as described in Table 5, reporter assay was conducted using a Promega's luciferase assay kit (E1960). The experiment was conducted according to the manufacturer's instructions and the activity of the Wnt/β-catenin promoter was measured using a luminometer (Victor; PerkinElmer, Waltham, Massachusetts, USA).
(A reporter such as luciferase makes a cellular process visible.)

The test system of assay [2] is Human-derived dermal papilla cells (DPCs). The experiment in a line: Enhancement of activity of dermal papilla cells (CCK-8 method). The format is cell-based. The following applies: for Activity of dermal papilla cells (%): incubated for a day, percentage of the control group as 100; for Effect on activity and proliferation of dermal papilla cells (in words): summary of Table 3. How it is done: Human-derived dermal papilla cells (DPCs) were purchased from PromoCell. The DPCs were cultured in DMEM (Hyclone Inc., UT, USA) containing 5% fetal bovine serum (FBS; GIBCO, NY, USA), 100 units/mL penicillin and 100 μg/mL streptomycin under the condition of 37° C. and 5% CO2. The cultured DPCs were seeded onto a 96-well plate at 3,000 cells/well and then cultured for 24 hours under a 0.1% serum condition. […] After the incubation, the enhancement of cellular activity was evaluated by the CCK method. The cell culture was treated and incubated with CCK-8 at 1:10 for 1 hour. 1 hour later, the absorbance of each well was measured at 450 nm. All the experiments were 3 times and the absorbance was averaged. The result was expressed as percentage of the control group as 100.
Background: Tetrazolium assays rely on reduction of a dye to a coloured formazan, in cell work by metabolically active cells.

Assay [3] shares this test system. The experiment in a line: Enhancement of mitochondrial activity of dermal papilla cells (JC-1 method). The format is cell-based. Conditions: for Mitochondrial activity of dermal papilla cells (%): incubated for a day, percentage of the control group as 100; for Effect on mitochondrial activity of dermal papilla cells (in words): summary of Table 4. How it is done:
Human-derived dermal papilla cells (DPCs) were purchased from PromoCell. The DPCs were cultured in DMEM (Hyclone Inc., UT, USA) containing 5% fetal bovine serum (FBS; GIBCO, NY, USA), 100 units/mL penicillin and 100 μg/mL streptomycin under the condition of 37° C. and 5% CO2. The cultured DPCs were seeded onto a 96-well plate at 3,000 cells/well and then cultured for 24 hours under a 0.1% serum condition. […] After the incubation, the degree of cell proliferation was evaluated by the JC-1 method. The cell culture was treated and incubated with JC-1 at 1:100 for 1 hour. 1 hour later, the fluorescence of each well was measured at 590 nm and 530 nm. All the experiments were 3 times and the fluorescence intensity was averaged. The result was expressed as percentage of the control group as 100.

For assay [4], the system named is androgen receptor. The experiment in a line: Androgenic activity: MMTV-Luc transcriptional activation assay in 22Rv1 cells with DHT. The format is cell-based, human. The following applies: for Inhibition of androgenic activity (%): 10 μg/mL together with 1 nM DHT, 24 hours; for Effect of inhibiting androgenic activity (in words): summary of Table 6. On the procedure:
The stable cell line was maintained by subculturing using RPMI1640 and 10% fetal bovine serum (GIBCO BRL, Gaithersburg, MD, USA). For transcriptional activation assay, the cells were seeded in a 96-well plate, with 25,000 cells per well, while replacing the medium with phenol red-free RPMI1640 containing 5% charcoal-stripped fetal bovine serum. […] The cell culture was treated and incubated with CCK-8 at 1:10 for 2 hours. 2 hour later, the absorbance of each well was measured at 450 nm. All the experiments were 3 times and the absorbance was averaged.

Regarding `CC(C)(O)[C@H]1CC[C@@](C)([C@H]2CC[C@]3(C)[C@@H]2[C@H](O)C[C@@H]2[C@@]4(C)CC[C@H](O)C(C)(C)[C@@H]4[C@@H](O[C@@H]4O[C@H](CO)[C@@H](O)[C@H](O)[C@H]4O)C[C@]23C)O1` [Pseudoginsenoside RT5, pseudoginsenoside RT5], the “Wnt signaling activity for activating hair follicles (%)” value (shortened to “Wnt signaling activity … (%)”) in assay [1] (10 μg/mL) was 120%. In addition, the “Wnt signaling activity (in words)” value in assay [1] was “superior Wnt signaling activity”. In assay [2] (10 μg/mL), the “Activity of dermal papilla cells (%)” value was 141%. For the same compound, in assay [2], the “Effect on activity and proliferation of dermal papilla cells (in words)” value (“Effect on activity and proliferation” below) is reported as “superior effect of enhancing the activity of dermal papilla cells”. In assay [3] (10 μg/mL), the “Mitochondrial activity of dermal papilla cells (%)” value (from here on “Mitochondrial activity … (%)”) is 112%. Further, the “Effect on mitochondrial activity of dermal papilla cells (in words)” value (from here on “Effect on mitochondrial activity”) in assay [3] is reported as “superior effect of enhancing the mitochondrial activity”. Besides, in assay [4], the “Inhibition of androgenic activity (%)” value worked out at 8%.

As to `C[C@@H]1O[C@@H](O[C@H]2[C@H](OC(=O)[C@]34CCC(C)(C)C[C@H]3C3=CC[C@@H]5[C@@]6(C)C[C@H](O)[C@H](O[C@@H]7O[C@H](CO)[C@@H](O)[C@H](O)[C@H]7O)[C@@](C)(CO)[C@@H]6CC[C@@]5(C)[C@]3(C)C[C@H]4O)OC[C@H](O)[C@@H]2O)[C@H](O)[C@H](O)[C@H]1O[C@@H]1OC[C@@H](O)[C@H](O[C@@H]2OC[C@](O)(CO)[C@H]2O)[C@H]1O` [Polygalacin D, polygalacin D], in assay [1] (10 μg/mL), the “Wnt signaling activity … (%)” value was 293%. For the same compound, the “Wnt signaling activity (in words)” value in assay [1] is recorded as “superior Wnt signaling activity”. In addition, in assay [2] (10 μg/mL), the “Activity of dermal papilla cells (%)” value is on record as 164%. The “Effect on activity and proliferation” value in assay [2] is “superior effect of enhancing the activity of dermal papilla cells”. In assay [4], the “Inhibition of androgenic activity (%)” value was 26% and the “Effect of inhibiting androgenic activity (in words)” value is reported as “superior effect of inhibiting androgenic activity”.

Consider `CC1(C)CC[C@]2(C(=O)O)CC[C@]3(C)C(=CC[C@@H]4[C@@]5(C)CC[C@H](O[C@@H]6O[C@H](C(=O)O)[C@@H](O)[C@H](O[C@@H]7OC[C@@H](O)[C@H](O)[C@H]7O)[C@H]6O)C(C)(C)[C@@H]5CC[C@]43C)[C@@H]2C1` [Momordin Ic, momordin Ic], for which, in assay [1] (10 μg/mL), the “Wnt signaling activity … (%)” value was 370%. The “Wnt signaling activity (in words)” value in assay [1] is reported as “superior Wnt signaling activity”. For the same compound, the “Activity of dermal papilla cells (%)” value in assay [2] (10 μg/mL) was 148%. Besides, the “Effect on activity and proliferation” value in assay [2] is given as “superior effect of enhancing the activity of dermal papilla cells”. In assay [3] (10 μg/mL), the “Mitochondrial activity … (%)” value stood at 120%. Further, the “Effect on mitochondrial activity” value in assay [3] is reported as “superior effect of enhancing the mitochondrial activity”. Further, the “Inhibition of androgenic activity (%)” value in assay [4] worked out at 12%.

For the compound `Nc1cc(N2CCCCC2)nc(N)[n+]1[O-]` [Minoxidil, 2,4-diamino-6-piperidinopyrimidine 3-oxide, reference compound], in assay [1] (2 μg/mL), the “Wnt signaling activity … (%)” value is reported as 82%. For the same compound, the “Activity of dermal papilla cells (%)” value in assay [2] (2 μg/mL) is 121%. The “Mitochondrial activity … (%)” value in assay [3] (2 μg/mL) is listed as 129%.

On to `C[C@@H]1O[C@@H](O[C@H]2[C@H](OC(=O)[C@]34CCC(C)(C)C[C@H]3C3=CC[C@@H]5[C@@]6(C)C[C@H](O)[C@H](O[C@@H]7O[C@H](CO)[C@@H](O)[C@H](O[C@@H]8O[C@H](CO)[C@@H](O)[C@H](O)[C@H]8O)[C@H]7O)C(CO)(CO)[C@@H]6CC[C@@]5(C)[C@]3(C)C[C@H]4O)OC[C@H](O)[C@@H]2O)[C@H](O)[C@H](O)[C@H]1O[C@@H]1OC[C@@H](O)[C@H](O[C@@H]2OC[C@](O)(CO)[C@H]2O)[C@H]1O` [Platycodin D2, platycodin D2], for which the “Wnt signaling activity … (%)” value in assay [1] (10 μg/mL) was found to be 216%. The “Wnt signaling activity (in words)” value in assay [1] is listed as “superior Wnt signaling activity”. Besides, the “Activity of dermal papilla cells (%)” value in assay [2] (10 μg/mL) was determined as 162%. For the same compound, in assay [2], the “Effect on activity and proliferation” value was “superior effect of enhancing the activity of dermal papilla cells”. Further, in assay [4], the “Inhibition of androgenic activity (%)” value stood at 16% and the “Effect of inhibiting androgenic activity (in words)” value is given as “superior effect of inhibiting androgenic activity”.

In the case of `CC(C)=C[C@@H]1CO[C@]23C[C@@]4(CO2)[C@@H](CC[C@@H]2[C@@]5(C)CC[C@H](O[C@H]6OC[C@H](O)[C@H](O[C@H]7O[C@H](COS(=O)(=O)O)[C@@H](O)[C@H](O)[C@H]7O)[C@H]6O[C@@H]6O[C@@H](CO)[C@H](O)[C@H]6O)C(C)(C)[C@@H]5CC[C@]24C)[C@H]3[C@@]1(C)O` [Bacopaside I, bacopaside I], in assay [2] (10 μg/mL), the “Activity of dermal papilla cells (%)” value is given as 133%. For the same compound, the “Effect on activity and proliferation” value in assay [2] is on record as “superior effect of enhancing the activity of dermal papilla cells”. In assay [3] (10 μg/mL), the “Mitochondrial activity … (%)” value amounted to 110%. Further, in assay [3], the “Effect on mitochondrial activity” value was “superior effect of enhancing the mitochondrial activity”. Besides, the “Inhibition of androgenic activity (%)” value in assay [4] is 6%.
